ChEMBL document CHEMBL1123377, “Potent antagonists of vasopressin antidiuretic activity that lack the beta,beta-cyclopentamethylene-beta-mercaptopropionic acid substitution at position 1” (J Med Chem, 1986)
Calls of active or inactive are those of the source. The calls are words filed in the database; no cut-off is given here.

How the values were obtained:
Rattus norvegicus [1] = experiment: Compound was tested in vivo to lower urine osmolality to 300 mOsm/kg in hydropenic rat preparation.; type: functional
[2] = target: Vasopressin V2 receptor (Sus scrofa) (UniProt P32307); experiment: Compound was tested for binding affinity against V2 vasopressin receptor in pig renal medullary membrane preparations using tritiated LVP.; type: cell membranes; conditions: Renal medulla
Sus scrofa = species: Sus scrofa; experiment: Compound was tested for adenylate cyclase activation in pig renal medullary membrane preparations.; type: functional; conditions: Renal medulla
Vasopressin V2 receptor [3] = target: T1, Vasopressin V2 receptor (Sus scrofa, UniProt P32307); experiment: Compound was tested for inhibition against V2 vasopressin receptor in pig renal medullary membrane preparations; e=Partial agonist with a relative Vmax of 14%.; type: functional, cell membranes, Renal medulla
Rattus norvegicus [4] = experiment: Compound was tested in vivo to lower urine osmolality to 300 mOsm/kg in hydropenic rat preparation; na=No activity; type: functional, organism-based
Vasopressin V2 receptor [5] = target: T1, Vasopressin V2 receptor; experiment: Compound was tested for inhibition against V2 vasopressin receptor in pig renal medullary membrane preparations.; type: cell membranes, Renal medulla

Sequence of Vasopressin V2 receptor (Sus scrofa) (P32307 whole entry): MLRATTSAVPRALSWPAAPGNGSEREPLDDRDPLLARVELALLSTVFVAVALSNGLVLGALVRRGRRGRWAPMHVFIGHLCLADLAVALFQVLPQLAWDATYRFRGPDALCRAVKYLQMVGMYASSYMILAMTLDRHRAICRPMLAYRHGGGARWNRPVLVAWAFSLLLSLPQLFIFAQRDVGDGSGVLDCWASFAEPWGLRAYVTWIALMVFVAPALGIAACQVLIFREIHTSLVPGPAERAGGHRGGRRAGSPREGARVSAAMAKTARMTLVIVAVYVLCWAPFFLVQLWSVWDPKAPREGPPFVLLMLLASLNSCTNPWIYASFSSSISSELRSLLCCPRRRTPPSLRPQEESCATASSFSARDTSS
T1 sequence (P32307 whole entry): as above

Row | Structure (SMILES) | ED300 (Rattus norvegicus [1]) | K bind [2] | also measured
1 | CCOc1ccc(C[C@H]2NC(=O)CC3(CCCCC3)SSC[C@@H](C(=O)N3CCC[C@H]3C(=O)N[C@@H](CCCN=C(N)N)C(=O)NCC(N)=O)NC(=O)[C@H](CC(N)=O)NC(=O)[C@H](C(C)C)NC(=O)[C@H](Cc3ccccc3)NC2=O)cc1 | 0.011 mg/kg | – | –
2 | CCOc1ccc(C[C@H]2NC(=O)CC(CC)(CC)SSC[C@H](C(=O)N3CCC[C@H]3C(=O)N[C@H](CCCN=C(N)N)C(=O)NCC(N)=O)NC(=O)[C@@H](CC(N)=O)NC(=O)[C@H](C(C)C)NC(=O)[C@@H](Cc3ccccc3)NC2=O)cc1 | – | 35 nM | –
3 | CCOc1ccc(C[C@H]2NC(=O)CC(CC)(CC)SSC[C@@H](C(=O)N3CCC[C@H]3C(=O)N[C@@H](CCCN=C(N)N)C(N)=O)NC(=O)[C@H](CC(N)=O)NC(=O)[C@H](C(C)C)NC(=O)[C@H](Cc3ccccc3)NC2=O)cc1 | 0.012 mg/kg | – | –
4 | CCOc1ccc(C[C@@H]2NC(=O)CC(CC)(CC)SSC[C@H](C(=O)N3CCC[C@H]3C(=O)N[C@H](CCCN=C(N)N)C(N)=O)NC(=O)[C@@H](CC(N)=O)NC(=O)[C@H](C(C)C)NC(=O)[C@@H](Cc3ccccc3)NC2=O)cc1 | 0.12 mg/kg | 450 nM | –
5 | CCOc1ccc(C[C@H]2NC(=O)CC(CC)(CC)SSC[C@@H](C(=O)N3CCC[C@H]3C(=O)N[C@@H](CCCN=C(N)N)C(=O)NCC(N)=O)NC(=O)[C@H](CC(N)=O)NC(=O)[C@H](C(C)C)NC(=O)[C@H](Cc3ccccc3)NC2=O)cc1 [listing 1 of 2 here] | 0.023 mg/kg | – | –
6 | CCOc1ccc(C[C@H]2NC(=O)CC(C)(C)SSC[C@H](C(=O)N3CCC[C@H]3C(=O)N[C@H](CCCN=C(N)N)C(=O)NCC(N)=O)NC(=O)[C@@H](CC(N)=O)NC(=O)[C@H](C(C)C)NC(=O)[C@@H](Cc3ccccc3)NC2=O)cc1 | – | 39 nM | K act (Sus scrofa): 79 nM; Ki (Vasopressin V2 receptor [3]): Partial agonist; ED300 (Rattus norvegicus [4]): inactive
7 | CCOc1ccc(C[C@H]2NC(=O)CC3(CCCCC3)SSC[C@H](C(=O)N3CCC[C@H]3C(=O)N[C@H](CCCN=C(N)N)C(N)=O)NC(=O)[C@@H](CC(N)=O)NC(=O)[C@H](C(C)C)NC(=O)[C@@H](Cc3ccccc3)NC2=O)cc1 | 0.01 mg/kg | 12 nM | –
8 | CCOc1ccc(C[C@H]2NC(=O)CC(CC)(CC)SSC[C@@H](C(=O)N3CCC[C@H]3C(=O)N[C@@H](CCCN=C(N)N)C(=O)NCC(N)=O)NC(=O)[C@H](CC(N)=O)NC(=O)[C@H](C(C)C)NC(=O)[C@H](Cc3ccccc3)NC2=O)cc1 [listing 2 of 2 here] | – | – | Ki (Vasopressin V2 receptor [5]): 5.3 nM
9 | CCOc1ccc(C[C@H]2NC(=O)CC3(CCCCC3)SSC[C@H](C(=O)N3CCC[C@H]3C(=O)N[C@H](CCCN=C(N)N)C(=O)NCC(N)=O)NC(=O)[C@@H](CC(N)=O)NC(=O)[C@H](C(C)C)NC(=O)[C@@H](Cc3ccccc3)NC2=O)cc1 | – | 12 nM | –
10 | CCOc1ccc(C[C@H]2NC(=O)CC(CC)(CC)SSC[C@H](C(=O)N3CCC[C@H]3C(=O)N[C@H](CCCN=C(N)N)C(N)=O)NC(=O)[C@@H](CC(N)=O)NC(=O)[C@H](C(C)C)NC(=O)[C@@H](Cc3ccccc3)NC2=O)cc1 | – | 30 nM | –
11 | CCOc1ccc(C[C@@H]2NC(=O)CC3(CCCCC3)SSC[C@H](C(=O)N3CCC[C@H]3C(=O)N[C@H](CCCN=C(N)N)C(N)=O)NC(=O)[C@@H](CC(N)=O)NC(=O)[C@H](C(C)C)NC(=O)[C@@H](Cc3ccccc3)NC2=O)cc1 | 0.3 mg/kg | 280 nM | –
12 | CCOc1ccc(C[C@H]2NC(=O)CC(CC)(CC)SSC[C@@H](C(=O)N3CCC[C@H]3C(=O)N[C@@H](CCCNC(=N)N)C(N)=O)NC(=O)[C@H](CC(N)=O)NC(=O)[C@H](C(C)C)NC(=O)[C@H](Cc3ccccc3)NC2=O)cc1 | – | – | Ki (Vasopressin V2 receptor [5]): 8.9 nM
